From PubChem BioAssay (NCI)
Several values for one entry are separate records, joined by “and”; a condition that tells them apart may be missing. Identical values can stand only once.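 Briefly, cells in 96-well plates were exposed to five compound concentrations for 48 h, and endpoints were estimated by linear interpolation. At the GI50, growth is halved. TGI is the concentration that stops growth completely.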

Legend:
Experiment in all cases: inhibition of tumour cell growth, NCI panel, 48 h
[1] = system: BT-549 breast
[2] = system: HCT-116 colon
[3] = system: TK-10 renal
[4] = system: OVCAR-3 ovarian
[5] = system: SF-539 CNS
[6] = system: SK-MEL-28 melanoma
[7] = system: SNB-19 CNS
[8] = system: UACC-257 melanoma
[9] = system: KM12 colon
[10] = system: A549 NSCLC

`CNCc1cccc2c1OCCOCCOCCN(C)S(=O)(=O)c1ccc(cc1)-c1cnc(N)c(n1)C(=O)N2` was tested, and the GI50 [1] was 3.27 µM, the TGI [1] was 21.6 µM and the GI50 [2] was 1.19 µM. The TGI [2] was 3.12 µM, the GI50 [3] was 2.06 µM and the TGI [3] was 20.8 µM. It also gave a GI50 [4] of 1590 nM, a TGI [4] of 9.79 µM and a GI50 [5] of 0.534 µM. The TGI [5] was 1.98 µM, the GI50 [6] was 1740 nM and the TGI [6] was 3.56 µM. For the same molecule, the GI50 [7] was 2.72 µM, the TGI [7] was 8.47 µM and the GI50 [8] was 2.69 µM. The TGI [8] was 5.64 µM, the GI50 [9] was 2290 nM and the TGI [9] was 14.6 µM. For the same molecule, the GI50 [10] was 1.57 µM and the TGI [10] was 13.4 µM.

`COc1ccc2c(c1)C(=O)c1c-2c(Nc2ccccc2OC)nc2ccccc12` gave a GI50 [1] of over 100 µM, a TGI [1] of over 100 µM and a GI50 [2] of over 100 µM. For the same molecule, the TGI [2] was over 100 µM, the GI50 [3] was over 100 µM and the TGI [3] was over 100 µM. The GI50 [4] was over 100000 nM, the TGI [4] was over 100 µM and the GI50 [5] was over 100 µM. The TGI [5] was over 100 µM, the GI50 [6] was over 100000 nM and the TGI [6] was over 100 µM. The GI50 [7] was over 100 µM, the TGI [7] was over 100 µM and the GI50 [8] was over 100 µM. The TGI [8] was over 100 µM, the GI50 [9] was over 100000 nM and the TGI [9] was over 100 µM. The GI50 [10] was over 100 µM and the TGI [10] was over 100 µM.

In the case of `COc1cc(CNc2nc3cc(N)cc(N)c3nc2-c2ccccc2)cc(OC)c1`, the GI50 [1] is reported as 9.7 µM, the TGI [1] is reported as over 100 µM and the GI50 [2] is reported as 3.08 µM. The TGI [2] was 11.3 µM, the GI50 [3] was 24.6 µM and the TGI [3] was 62.3 µM. It also gave a GI50 [4] of 1860 nM, a TGI [4] of 4.52 µM and a GI50 [5] of 5.29 µM. It also gave a TGI [5] of 21.4 µM, a GI50 [6] of 1760 nM and a TGI [6] of 8.62 µM. For the same molecule, the GI50 [7] was 23.4 µM, the TGI [7] was over 100 µM and the TGI [8] was over 100 µM. It also gave a GI50 [9] of 4280 nM, a TGI [9] of 73.3 µM and a GI50 [10] of 33.2 µM. It also gave a TGI [10] of over 100 µM.

In the case of `CC1=C(C(=O)Nc2ccccc2)C(c2ccc(N(C)C)cc2)C(C(=O)Nc2ccccc2)=C(C)N1`, the TGI [1] is reported as over 88.3 µM, the TGI [2] is reported as over 57.3 µM and the TGI [3] is reported as over 100 µM. It also gave a TGI [4] of over 100 µM, a TGI [5] of over 100 µM and a TGI [6] of 36.6 µM. The TGI [7] was over 100 µM, the TGI [8] was over 100 µM and the TGI [9] was 27.2 µM. For the same molecule, the TGI [10] was 98.9 µM.

With `CCCCCCN(CCCCCC)C(=S)N/N=C(\C)c1ccccn1` the TGI [1] was 3.8 µM, the TGI [2] was 2.39 µM and the TGI [3] was 2.5 µM. The TGI [4] was 2.83 µM, the TGI [5] was 2.77 µM and the TGI [6] was 3.04 µM. For the same molecule, the TGI [7] was 3.92 µM, the TGI [8] was 4.34 µM and the TGI [9] was 2.73 µM. It also gave a TGI [10] of 3.66 µM.

For `COc1ccc(C(=O)c2cc(OC)c(OC)c(OC)c2OC)cc1O`, the GI50 [1] was 5.52 µM, the TGI [1] was over 100 µM and the GI50 [2] was 3.98 µM. It also gave a TGI [2] of over 100 µM, a GI50 [3] of 52.8 µM and a TGI [3] of over 100 µM. For the same molecule, the GI50 [4] was 2830 nM, the TGI [4] was 7.65 µM and the GI50 [5] was 3.05 µM. It also gave a TGI [5] of 8.96 µM, a GI50 [6] of 6420 nM and a TGI [6] of over 100 µM. For the same molecule, the GI50 [7] was 4.49 µM, the TGI [7] was over 100 µM and the GI50 [8] was 4.75 µM. The TGI [8] was over 100 µM, the GI50 [9] was 2910 nM and the TGI [9] was over 100 µM. The GI50 [10] was 5.4 µM and the TGI [10] was over 100 µM.

Work on `N#CC1c2ccccc2C=CN1C(=O)CCCl` (configuration not stated) yielded a GI50 [1] of 16.9 µM, a TGI [1] of 30.7 µM and a GI50 [2] of 3.59 µM. For the same molecule, the TGI [2] was 11.3 µM, the GI50 [3] was 2.16 µM and the TGI [3] was 6.02 µM. For the same molecule, the GI50 [4] was 2510 nM, the TGI [4] was 6.1 µM and the GI50 [5] was 8.06 µM. It also gave a TGI [5] of 22.3 µM, a GI50 [6] of 10700 nM and a TGI [6] of 24 µM. It also gave a GI50 [7] of 20.1 µM, a TGI [7] of 52.9 µM and a GI50 [8] of 13.1 µM. It also gave a TGI [8] of 26.5 µM, a GI50 [9] of 16900 nM and a TGI [9] of 42.6 µM. For the same molecule, the GI50 [10] was 20.1 µM and the TGI [10] was 37.3 µM.

In the case of `O=C1c2cccc(Oc3ccccc3)c2C(=O)c2cccc(Oc3ccccc3)c21`, the GI50 [1] is reported as 22.9 µM, the TGI [1] is reported as over 100 µM and the GI50 [2] is reported as over 100 µM. The TGI [2] was over 100 µM, the GI50 [3] was over 100 µM and the TGI [3] was over 100 µM. It also gave a GI50 [4] of over 100000 nM, a TGI [4] of over 100 µM and a GI50 [5] of 41.5 µM. It also gave a TGI [5] of over 100 µM, a GI50 [6] of over 100000 nM and a TGI [6] of over 100 µM. The GI50 [7] was 9.56 µM, the TGI [7] was 72.1 µM and the GI50 [8] was over 100 µM. For the same molecule, the TGI [8] was over 100 µM, the GI50 [9] was over 100000 nM and the TGI [9] was over 100 µM. The GI50 [10] was over 100 µM and the TGI [10] was over 100 µM.

Work on `Cc1c(C(=N)C(C#N)C#N)c(=N)oc2c1ccc1ccccc12` yielded a GI50 [1] of 32.2 µM, a TGI [1] of over 100 µM and a GI50 [2] of 17.6 µM. The TGI [2] was over 100 µM, the GI50 [3] was 30.5 µM and the TGI [3] was over 100 µM. For the same molecule, the GI50 [4] was 14700 nM, the TGI [4] was 40.8 µM and the GI50 [5] was 20.6 µM. It also gave a TGI [5] of 71.5 µM, a GI50 [6] of 22500 nM and a TGI [6] of 60.8 µM. For the same molecule, the GI50 [7] was 30.5 µM, the TGI [7] was over 100 µM and the GI50 [8] was 28.6 µM. It also gave a TGI [8] of over 100 µM, a GI50 [9] of 26200 nM and a TGI [9] of over 100 µM. For the same molecule, the GI50 [10] was 32.9 µM and the TGI [10] was over 100 µM.

Work on `Cc1cccc(NC(=O)c2sc3nc4c(cc3c2N)C(=O)CCC4)c1` yielded a GI50 [1] of 2.68 µM, a TGI [1] of over 96.3 µM and a GI50 [2] of 0.333 µM. It also gave a TGI [2] of over 100 µM, a GI50 [3] of over 100 µM and a TGI [3] of over 100 µM. The GI50 [4] was 257 nM, the TGI [4] was 1.18 µM and the GI50 [5] was 0.199 µM. For the same molecule, the TGI [5] was 0.616 µM, the GI50 [6] was 1530 nM and the TGI [6] was over 62.3 µM. It also gave a GI50 [7] of 0.464 µM, a TGI [7] of over 100 µM and a TGI [8] of over 100 µM. It also gave a GI50 [9] of 215 nM, a TGI [9] of over 100 µM and a GI50 [10] of 0.335 µM. The TGI [10] was over 100 µM.

`CC(=O)O[C@H]1C(=O)[C@@]2(C)C([C@H](OC(=O)c3ccccc3)[C@]3(O)C[C@H](OC(=O)[C@H](O)[C@@H](NC(=O)c4ccccc4)c4ccccc4)C(C)=C1C3(C)C)[C@]1(OC(C)=O)CO[C@@H]1C[C@@H]2O` (some centres not stated) showed a GI50 [1] of 0.0212 µM, a TGI [1] of over 50 µM and a GI50 [2] of under 0.005 µM. The TGI [2] was over 50 µM, the TGI [3] was over 50 µM and the GI50 [4] was 5.6 nM. It also gave a TGI [4] of 0.0589 µM, a GI50 [5] of 0.00872 µM and a TGI [5] of over 50 µM. For the same molecule, the GI50 [6] was 13.9 nM, the TGI [6] was over 50 µM and the GI50 [7] was 0.0135 µM. For the same molecule, the TGI [7] was over 50 µM, the GI50 [8] was over 50 µM and the TGI [8] was over 50 µM. The GI50 [9] was under 5 nM, the TGI [9] was over 50 µM and the GI50 [10] was under 0.005 µM. It also gave a TGI [10] of over 50 µM.

`CC(C)(CO)CNC(=O)c1ccc2[nH]c(O)c(N=Nc3ccc(S(N)(=O)=O)cc3)c2c1` showed a GI50 [1] of over 25 µM, a TGI [1] of over 25 µM and a GI50 [2] of over 25 µM. It also gave a TGI [2] of over 25 µM, a GI50 [3] of over 25 µM and a TGI [3] of over 25 µM. It also gave a GI50 [4] of over 25000 nM, a TGI [4] of over 25 µM and a GI50 [5] of over 25 µM. The TGI [5] was over 25 µM, the GI50 [6] was over 25000 nM and the TGI [6] was over 25 µM. For the same molecule, the GI50 [7] was over 25 µM, the TGI [7] was over 25 µM and the GI50 [8] was over 25 µM. It also gave a TGI [8] of over 25 µM, a GI50 [9] of over 25000 nM and a TGI [9] of over 25 µM. The GI50 [10] was over 25 µM and the TGI [10] was over 25 µM.

With `Cc1nn(-c2ccc(Cl)cc2)c2ncnc(N/N=C/c3ccccc3O)c12` the GI50 [1] was 1.31 µM and 0.57 µM, the TGI [1] was 57.9 µM and > 100 µM and the GI50 [2] was 0.373 µM and 0.701 µM. The TGI [2] was 20.7 µM and > 43.3 µM, the GI50 [3] was 2.33 µM and 1.86 µM and the TGI [3] was 63.4 µM and > 100 µM. For the same molecule, the GI50 [4] was 380 nM and 278 nM, the TGI [4] was 19.7 µM and 29.4 µM and the GI50 [5] was 0.484 µM and 0.455 µM. For the same molecule, the TGI [5] was 11.5 µM and 5.99 µM, the GI50 [6] was 1560 nM and 494 nM and the TGI [6] was over 100 µM. For the same molecule, the GI50 [7] was 1.08 µM and 0.604 µM, the TGI [7] was over 80.4 µM and the GI50 [8] was 2.68 µM and 1.31 µM. For the same molecule, the TGI [8] was 16.1 µM and 39.3 µM, the GI50 [9] was 530 nM and 385 nM and the TGI [9] was over 100 µM. The GI50 [10] was 1.77 µM and 0.699 µM and the TGI [10] was 17.2 µM and 16 µM.
